Assay results from ChEMBL document CHEMBL1764977, “Anti-tumor and anti-leishmanial evaluations of 1,3,4-oxadiazine, pyran derivatives derived from cross-coupling reactions of β-bromo-6H-1,3,4-oxadiazine derivatives” (2011).

Assays:
Format in all cases: functional
NCI-H460 = assay: Growth inhibition of human NCI-H460 cells after 48 hrs by sulforhodamine B assay; conditions: NCI-H460, 48 h
MCF7 = assay: Growth inhibition of human MCF7 cells after 48 hrs by sulforhodamine B assay; conditions: MCF7, 48 h
Leishmania donovani = assay: Antileishmanial activity against Leishmania donovani axenic amastigotes infected in human THP1 cells assessed as growth inhibition at 50 uM; conditions: THP-1, read-out: GI
SF-268 = assay: Growth inhibition of human SF268 cells after 48 hrs by sulforhodamine B assay; conditions: SF-268, 48 h
THP-1 = assay: Growth inhibition of human THP1 cells after 48 hrs by sulforhodamine B assay; conditions: THP-1, 48 h

Row | Compound | GI50 (NCI-H460) | GI50 (MCF7) | GI50 (THP-1) | inhibition of growth at 50 µM (Leishmania donovani) | GI50 (SF-268)
1 | N#CCC(=O)N/N=C(/CBr)c1ccc(Br)cc1 | 10 µM | 40.6 µM | – | 20% | 12.8 µM
2 | N#CCC(=O)N/N=C(/CBr)c1ccc([N+](=O)[O-])cc1 | 10.3 µM | 18.4 µM | – | 35% | 14 µM
3 | N#CCC1=NN=C(c2ccc(Br)cc2)CO1 | 0.9 µM | 1.5 µM | – | 26% | 10.3 µM
4 | N#CCC1=NN=C(c2ccc([N+](=O)[O-])cc2)CO1 | 0.002 µM | 0.001 µM | – | 44% | 1.8 µM
5 | N#CCC1=NN=C(c2ccc([N+](=O)[O-])cc2)C(Br)O1 (stereo not given) | 8.5 µM | 10.6 µM | 22 µM | 58% | 6.7 µM
6 | N#CCC1=C(C#N)CC(c2ccc(Br)cc2)=C(CC(=O)c2ccc([N+](=O)[O-])cc2)O1 | 0.01 µM | 0.09 µM | 12.9 µM | 90% | 0.003 µM
7 | N#CCC1=C(C#N)CC(c2ccc([N+](=O)[O-])cc2)=C(CC(=O)c2ccc([N+](=O)[O-])cc2)O1 | 0.08 µM | 0.03 µM | 10.2 µM | 98% | 0.005 µM
8 | C[C@@H]1[C@H](O)[C@@H](C)/C=C/C=C/C=C/C=C/C=C/C=C/C=C/[C@H](O[C@@H]2O[C@H](C)[C@@H](O)[C@H](N)[C@@H]2O)C[C@@H]2O[C@](O)(C[C@@H](O)C[C@@H](O)[C@H](O)CC[C@@H](O)C[C@@H](O)CC(=O)O[C@H]1C)C[C@H](O)[C@H]2C(=O)O [AMPHOTERICIN B] | – | – | – | 95% | –
9 | COc1cccc2c1C(=O)c1c(O)c3c(c(O)c1C2=O)C[C@@](O)(C(=O)CO)C[C@@H]3O[C@H]1C[C@H](N)[C@H](O)[C@H](C)O1 [DOXORUBICIN] | 0.094 µM | – | – | – | 0.094 µM

More lines, main results first:

Row | GI50 (NCI-H460) | GI50 (MCF7) | GI50 (THP-1) | Compound | inhibition of growth at 50 µM (Leishmania donovani) | GI50 (SF-268)
10 | 38.2 µM | 70.7 µM | – | N#CCC1=NN=C(c2ccc(Br)cc2)C(Br)O1 (stereo not given) | 40% | 32 µM
11 | 22.1 µM | 30.4 µM | – | N#CCC1=NN=C(c2ccc(Br)cc2)C(CC(=O)c2ccc(Br)cc2)O1 (stereo not given) | 48% | 16.9 µM
12 | 23 µM | 32 µM | 20 µM | N#CCC1=NN=C(c2ccc(Br)cc2)C(CC(=O)c2ccc([N+](=O)[O-])cc2)O1 (stereo not given) | 60% | 18.5 µM
13 | 40 µM | 36 µM | – | N#CCC1=NN=C(c2ccc([N+](=O)[O-])cc2)C(CC(=O)c2ccc(Br)cc2)O1 (stereo not given) | 73% | 16.5 µM
14 | 2.6 µM | 1.6 µM | 33 µM | N#CCC1=NN=C(c2ccc([N+](=O)[O-])cc2)C(CC(=O)c2ccc([N+](=O)[O-])cc2)O1 (stereo not given) | 88% | 2 µM
15 | 10.4 µM | 12 µM | – | N#CCC1=C(C#N)CC(c2ccc(Br)cc2)=C(CC(=O)c2ccc(Br)cc2)O1 | 60% | 8.2 µM
16 | 3.6 µM | 4.9 µM | 26 µM | N#CCC1=C(C#N)CC(c2ccc([N+](=O)[O-])cc2)=C(CC(=O)c2ccc(Br)cc2)O1 | 82% | 2.8 µM
